Laboratory results from patent publication US12091405B2, “Substituted pyrazole compounds as indoleamine 2,3-dioxygenase inhibitors” (Merck Sharp & Dohme LLC, priority 2018, dated 2024).

Each molecule was assayed against IDO1 (Homo sapiens, UniProt P14902) (assay: IDO1 Cellular Assay in HeLa Cells Stimulated with IFNγ). Settings: IFNγ 100 ng/mL, 300 uM L-tryptophan, about 48 hours, fluorescence readout, read-out: IDO1 HELA Cell Assay, IC50.
IDO1, sequence (P14902 whole entry): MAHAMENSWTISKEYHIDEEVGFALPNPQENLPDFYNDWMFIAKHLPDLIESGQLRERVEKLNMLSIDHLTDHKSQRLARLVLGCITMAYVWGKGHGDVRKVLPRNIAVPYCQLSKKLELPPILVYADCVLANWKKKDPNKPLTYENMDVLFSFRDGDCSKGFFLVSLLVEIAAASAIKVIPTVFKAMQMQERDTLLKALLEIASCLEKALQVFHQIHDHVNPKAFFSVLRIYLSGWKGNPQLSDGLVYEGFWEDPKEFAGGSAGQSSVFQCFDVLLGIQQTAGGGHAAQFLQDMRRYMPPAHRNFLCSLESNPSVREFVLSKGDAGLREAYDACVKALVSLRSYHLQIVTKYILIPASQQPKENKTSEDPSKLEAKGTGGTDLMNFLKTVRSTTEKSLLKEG
Assay type: cell-based
For `Cc1cccc(C2(F)CCN(C(=O)Cn3nc(C(=O)N4CCN(C(=O)CO)CC4)c4c3C[C@H]3C[C@@H]43)CC2)c1C` [Example 11, 1-(4-(2,3-dimethylphenyl)-4-fluoropiperidin-1-yl)-2-((3bR,4aR)-3-(4-(2-hydroxyacetyl)piperazine-1-carbonyl)-3b,4,4a,5-tetrahydro-1H-cyclopropa[3,4]cyclopenta[1,2-c]pyrazol-1-yl)ethanone], the IC50 was 5.4 nM.
In the case of `C[C@@H]1CN(C(=O)c2nn(CC(=O)N3CCC(c4cc(F)c(F)c(F)c4Cl)CC3)c3c2CCC3)C[C@H](C)O1` [Example 132, 1-[4-(2-chloro-3,4,5-trifluorophenyl)piperidin-1-yl]-2-{3-[(2R,6S)-2,6-dimethylmorpholine-4-carbonyl]-5,6-dihydrocyclopenta[c]pyrazol-1(4H)-yl}ethan-1-one], the IC50 is reported as 80.2 nM.
Work on `C[C@@H]1CN(C(=O)c2nn(CC(=O)N3CCC(c4cccc(C(C)(F)F)c4)CC3)c3c2CCC3)C[C@H](C)O1` [Example 159, 1-{4-[3-(1,1-difluoroethyl)phenyl]piperidin-1-yl}-2-{3-[(2R,6S)-2,6-dimethylmorpholine-4-carbonyl]-5,6-dihydrocyclopenta[c]pyrazol-1(4H)-yl}ethan-1-one] yielded an IC50 of 156 nM.
`Cc1cccc(C2CCN(C(=O)Cn3nc(C(=O)N4CC[C@](C)(O)C4)c4c3CCC4)CC2)c1C` [Example 49, (S)-1-(4-(2,3-dimethylphenyl)piperidin-1-yl)-2-(3-(3-hydroxy-3-methylpyrrolidine-1-carbonyl)-5,6-dihydrocyclopenta[c]pyrazol-1(4H)-yl)ethan-1-one] was tested, and the IC50 was 29.8 nM.
`Cc1cc(Cl)cc(C2CCN(C(=O)Cn3nc(C(=O)N4C[C@@H](C)O[C@@H](C)C4)c4c3CCC4)CC2)c1` [Example 148, 1-[4-(3-chloro-5-methylphenyl)piperidin-1-yl]-2-{3-[(2R,6S)-2,6-dimethylmorpholine-4-carbonyl]-5,6-dihydrocyclopenta[c]pyrazol-1(4H)-yl}ethan-1-one] was tested, and the IC50 was 117 nM.
Molecule `C[C@@H]1CN(C(=O)c2nn(CC(=O)N3CCC(c4cccc5ccsc45)CC3)c3c2CCC3)C[C@H](C)O1` [Example 84, 1-[4-(benzothiophen-7-yl)-1-piperidyl]-2-[3-[(2S,6R)-2,6-dimethylmorpholine-4-carbonyl]-5,6-dihydro-4H-cyclopenta[c]pyrazol-2-ium-1-yl]ethanone;2,2,2-trifluoroacetate] has an IC50 of 4.7 nM.
In the case of `C[C@@H]1CN(C(=O)c2nn(CC(=O)N3CCC(c4ccc(C(F)F)cc4F)CC3)c3c2CCC3)C[C@H](C)O1` [Example 142, 1-{4-[4-(difluoromethyl)-2-fluorophenyl]piperidin-1-yl}-2-{3-[(2R,6S)-2,6-dimethylmorpholine-4-carbonyl]-5,6-dihydrocyclopenta[c]pyrazol-1(4H)-yl}ethan-1-one], the IC50 is reported as 99.5 nM.
In the case of `Cc1cc(F)ccc1C1CCN(C(=O)Cn2nc(C(=O)N3CCC(O)(CF)CC3)c3c2CCC3)CC1` [Example 53, 1-(4-(4-fluoro-2-methylphenyl)piperidin-1-yl)-2-(3-(4-(fluoromethyl)-4-hydroxypiperidine-1-carbonyl)-5,6-dihydrocyclopenta[c]pyrazol-1 (4H)-yl)ethanone], the IC50 is reported as 114 nM.
For `Cc1cc(F)ccc1C1CCN(C(=O)Cn2nc(C(=O)N3CCO[C@H](CO)C3)c3c2CCC3)CC1` [Example 58, (S)-1-(4-(4-fluoro-2-methylphenyl)piperidin-1-yl)-2-(3-(2-(hydroxymethyl)morpholine-4-carbonyl)-5,6-dihydrocyclopenta[c]pyrazol-1(4H)-yl)ethanone], the IC50 was 454 nM.
`Cc1cccc(C2CCN(C(=O)Cn3nc(C(=O)N4CC[C@@H](O)C4)c4c3CCC4)CC2)c1C` [Example 51, (R)-1-(4-(2,3-dimethylphenyl)piperidin-1-yl)-2-(3-(3-hydroxypyrrolidine-1-carbonyl)-5,6-dihydrocyclopenta[c]pyrazol-1(4H)-yl)ethan-1-one] gave an IC50 of 45.5 nM.
`Cc1cccc(C2CCN(C(=O)Cn3nc(C(=O)N4CC[C@@H](O)[C@@H](F)C4)c4c3C[C@@H]3C[C@H]43)CC2)c1C` [Example 27, 1-[4-(2,3-dimethylphenyl)piperidin-1-yl]-2-{(3bS,4aS)-3-[(3S,4R)-3-fluoro-4-hydroxypiperidine-1-carbonyl]-3b,4,4a,5-tetrahydro-1H-cyclopropa[3,4]cyclopenta[1,2-c]pyrazol-1-yl}ethan-1-one] gave an IC50 of 36.8 nM.
`Cc1c(F)cccc1C1CCCN(C(=O)Cn2nc(C(=O)N3C[C@@H](C)O[C@@H](C)C3)c3c2CCC3)C1` (stereo partly drawn) [Example 77, 2-{3-[(2R,6S)-2,6-dimethylmorpholine-4-carbonyl]-5,6-dihydrocyclopenta[c]pyrazol-1(4H)-yl}-1-[3-(3-fluoro-2-methylphenyl)piperidin-1-yl] ethan-1-one] showed an IC50 of 233 nM.
Work on `C[C@@H]1CN(C(=O)c2nn(CC(=O)N3CCC(c4ccc5ccccc5c4)CC3)c3c2CCC3)C[C@H](C)O1` [Example 76, 2-{3-[(2R,6S)-2,6-dimethylmorpholine-4-carbonyl]-5,6-dihydrocyclopenta[c]pyrazol-1(4H)-yl}-1-[4-(naphthalen-2-yl)piperidin-1-yl]ethan-1-one] yielded an IC50 of 199 nM.
`Cc1cc(Cl)ccc1C1CCN(C(=O)Cn2nc(C(=O)N3C[C@@H](C)O[C@@H](C)C3)c3c2CCC3)CC1` [Example 106, 1-[4-(4-chloro-2-methylphenyl)piperidin-1-yl]-2-{3-[(2R,6S)-2,6-dimethylmorpholine-4-carbonyl]-5,6-dihydrocyclopenta[c]pyrazol-1(4H)-yl}ethan-1-one] was tested, and the IC50 was 30.3 nM.
With `Cc1cccc(C2CCN(C(=O)Cn3nc(C(=O)N4CC[C@H](O)C4)c4c3CCC4)CC2)c1C` [Example 48, (S)-1-(4-(2,3-dimethylphenyl)piperidin-1-yl)-2-(3-(3-hydroxypyrrolidine-1-carbonyl)-5,6-dihydrocyclopenta[c]pyrazol-1(4H)-yl)ethan-1-one] the IC50 was 27 nM.
For `C[C@@H]1CN(C(=O)c2nn(CC(=O)N3CCC(c4cccc5c(F)cccc45)CC3)c3c2CCC3)C[C@H](C)O1` [Example 85, 2-{3-[(2R,6S)-2,6-dimethylmorpholine-4-carbonyl]-5,6-dihydrocyclopenta[c]pyrazol-1(4H)-yl}-1-[4-(5-fluoronaphthalen-1-yl)piperidin-1-yl]ethan-1-one], the IC50 was 5.3 nM.
`Cc1cccc(C2(F)CCN(C(=O)Cn3nc(C(=O)N4CCC(OCCO)CC4)c4c3C[C@H]3C[C@@H]43)CC2)c1C` [Example 8, 1-(4-(2,3-dimethylphenyl)-4-fluoropiperidin-1-yl)-2-((3bR,4aR)-3-(4-(2-hydroxyethoxy)piperidine-1-carbonyl)-3b,4,4a,5-tetrahydro-1H-cyclopropa[3,4]cyclopenta[1,2-c]pyrazol-1-yl)ethanone] was tested, and the IC50 was 1 nM.
`COc1c(F)cc(C2CCN(C(=O)Cn3nc(C(=O)N4C[C@@H](C)O[C@@H](C)C4)c4c3CCC4)CC2)cc1Cl` [Example 95, 1-[4-(3-chloro-5-fluoro-4-methoxyphenyl)piperidin-1-yl]-2-{3-[(2R,6S)-2,6-dimethylmorpholine-4-carbonyl]-5,6-dihydrocyclopenta[c]pyrazol-1(4H)-yl}ethan-1-one] was tested, and the IC50 was 19.3 nM.
`C[C@@H]1CN(C(=O)c2nn(CC(=O)N3CCC(c4ccc(C(F)(F)F)c(Cl)c4)CC3)c3c2CCC3)C[C@H](C)O1` [Example 169, 1-{4-[3-chloro-4-(trifluoromethyl)phenyl]piperidin-1-yl}-2-{3-[(2R,6S)-2,6-dimethylmorpholine-4-carbonyl]-5,6-dihydrocyclopenta[c]pyrazol-1(4H)-yl}ethan-1-one] showed an IC50 of 329 nM.
`C[C@@H]1CN(C(=O)c2nn(CC(=O)N3CCC(c4ccc(Cl)cc4F)CC3)c3c2CCC3)C[C@H](C)O1` [Example 135, 1-[4-(4-chloro-2-fluorophenyl)piperidin-1-yl]-2-{3-[(2R,6S)-2,6-dimethylmorpholine-4-carbonyl]-5,6-dihydrocyclopenta[c]pyrazol-1(4H)-yl}ethan-1-one] gave an IC50 of 83.4 nM.
With `Cc1cc(F)ccc1C1CCN(C(=O)Cn2nc(C(=O)N3CC[C@@H](O)[C@@H](F)C3)c3c2CCC3)CC1` [Example 55, 1-(4-(4-fluoro-2-methylphenyl)piperidin-1-yl)-2-(3-((3S,4R)-3-fluoro-4-hydroxypiperidine-1-carbonyl)-5,6-dihydrocyclopenta[c]pyrazol-1(4H)-yl)ethanone] the IC50 was 166 nM.
For `C[C@@H]1CN(C(=O)c2nn(CC(=O)N3CCC(c4ccc(F)c(F)c4)CC3)c3c2CCC3)C[C@H](C)O1` [Example 144, 1-[4-(3,4-difluorophenyl)piperidin-1-yl]-2-{3-[(2R,6S)-2,6-dimethylmorpholine-4-carbonyl]-5,6-dihydrocyclopenta[c]pyrazol-1(4H)-yl}ethan-1-one], the IC50 was 104 nM.
`COc1ccc(C2CCN(C(=O)Cn3nc(C(=O)N4C[C@@H](C)O[C@@H](C)C4)c4c3CCC4)CC2)c(C)c1C` [Example 138, 2-{3-[(2R,6S)-2,6-dimethylmorpholine-4-carbonyl]-5,6-dihydrocyclopenta[c]pyrazol-1(4H)-yl}-1-[4-(4-methoxy-2,3-dimethylphenyl)piperidin-1-yl]ethan-1-one] was tested, and the IC50 was 87.6 nM.
Work on `C[C@@H]1CN(C(=O)c2nn(CC(=O)N3CCC(c4ccc(F)cc4)CC3)c3c2CCC3)C[C@H](C)O1` [Example 68, 2-{3-[(2R,6S)-2,6-dimethylmorpholine-4-carbonyl]-5,6-dihydrocyclopenta[c]pyrazol-1(4H)-yl}-1-[4-(4-fluorophenyl)piperidin-1-yl]ethan-1-one] yielded an IC50 of 71.2 nM.
`Cc1cccc(C2CCN(C(=O)Cn3nc(C(=O)N4CCC(O)CC4)c4c3CCC4)CC2)c1C` [Example 41, 1-(4-(2,3-dimethylphenyl)piperidin-1-yl)-2-(3-(4-hydroxypiperidine-1-carbonyl)-5,6-dihydrocyclopenta[c]pyrazol-1(4H)-yl)ethan-1-one] showed an IC50 of 3.6 nM.
Molecule `C[C@@H]1CN(C(=O)c2nn(CC(=O)N3CCC(c4ccc5c(c4)CCO5)CC3)c3c2CCC3)C[C@H](C)O1` [Example 93, 1-[4-(2,3-dihydro-1-benzofuran-5-yl)piperidin-1-yl]-2-{3-[(2R,6S)-2,6-dimethylmorpholine-4-carbonyl]-5,6-dihydrocyclopenta[c]pyrazol-1(4H)-yl}ethan-1-one] has an IC50 of 17.8 nM.
